Assay results published in PubChem BioAssay AID248 (DTP/NCI, 2004).
“And” between values parts separate entries of the source, which are not always exact repeats. Identical values can stand only once. Inconclusive results and toxic doses are left out. Rule as the data show it: active = T/C of 150% or more; inactive = T/C below 125%.

Tested on: L1210 leukemia ip in BDF1 mice, survival T/C
Assay: NCI In Vivo Anticancer Drug Screen. Data for tumor model L1210 Leukemia (intraperitoneal) in B6D2F1 (BDF1) mice
Details: endpoint: mean survival time, higher = longer survival
Outline: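 Transplantable tumor model; survival measured in treated vs vehicle control mice. Value = treated/control.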

[1] = dose: 100.0 mg/kg/injection, schedule: Q01DX001 (ip), vehicle: saline
[2] = dose: 100.0 mg/kg/injection, schedule: Q01DX009 (ip), vehicle: saline
[3] = dose: 200.0 mg/kg/injection, schedule: Q01DX001 (ip), vehicle: saline
[4] = dose: 200.0 mg/kg/injection, schedule: Q01DX009 (ip), vehicle: saline
[5] = dose: 400.0 mg/kg/injection, schedule: Q01DX001 (ip), vehicle: saline
[6] = dose: 400.0 mg/kg/injection, schedule: Q01DX009 (ip), vehicle: saline
[7] = dose: 100.0 mg/kg/injection, schedule: Q01DX009 (ip), vehicle: Klucel (hydroxypropylcellulose) (HPC)
[8] = dose: 100.0 mg/kg/injection, schedule: Q04DX003 (ip), vehicle: Klucel (hydroxypropylcellulose) (HPC)
[9] = dose: 200.0 mg/kg/injection, schedule: Q01DX009 (ip), vehicle: Klucel (hydroxypropylcellulose) (HPC)
[10] = dose: 200.0 mg/kg/injection, schedule: Q04DX003 (ip), vehicle: Klucel (hydroxypropylcellulose) (HPC)
[11] = dose: 400.0 mg/kg/injection, schedule: Q01DX009 (ip), vehicle: Klucel (hydroxypropylcellulose) (HPC)
[12] = dose: 400.0 mg/kg/injection, schedule: Q04DX003 (ip), vehicle: Klucel (hydroxypropylcellulose) (HPC)
[13] = dose: 100.0 mg/kg/injection, schedule: Q04DX002 (ip), vehicle: saline
[14] = dose: 200.0 mg/kg/injection, schedule: Q04DX002 (ip), vehicle: saline
[15] = dose: 400.0 mg/kg/injection, schedule: Q04DX002 (ip), vehicle: saline
[16] = dose: 100.0 mg/kg/injection, schedule: Q01DX001 (ip), vehicle: Klucel (hydroxypropylcellulose) (HPC)
[17] = dose: 200.0 mg/kg/injection, schedule: Q01DX001 (ip), vehicle: Klucel (hydroxypropylcellulose) (HPC)
[18] = dose: 400.0 mg/kg/injection, schedule: Q01DX001 (ip), vehicle: Klucel (hydroxypropylcellulose) (HPC)
[19] = dose: 100.0 mg/kg/injection, schedule: Q04DX003 (ip), vehicle: saline with Tween-80
[20] = dose: 200.0 mg/kg/injection, schedule: Q04DX003 (ip), vehicle: saline with Tween-80
[21] = dose: 400.0 mg/kg/injection, schedule: Q04DX003 (ip), vehicle: saline with Tween-80
[22] = dose: 100.0 mg/kg/injection, schedule: Q04DX002 (ip), vehicle: Klucel (hydroxypropylcellulose) (HPC)
[23] = dose: 200.0 mg/kg/injection, schedule: Q04DX002 (ip), vehicle: Klucel (hydroxypropylcellulose) (HPC)
[24] = dose: 100.0 mg/kg/injection, schedule: Q01DX009 (ip), vehicle: saline with Tween-80
[25] = dose: 200.0 mg/kg/injection, schedule: Q01DX009 (ip), vehicle: saline with Tween-80
[26] = dose: 100.0 mg/kg/injection, schedule: Q04DX003 (ip), vehicle: saline
[27] = dose: 200.0 mg/kg/injection, schedule: Q04DX003 (ip), vehicle: saline
[28] = dose: 400.0 mg/kg/injection, schedule: Q04DX003 (ip), vehicle: saline
[29] = dose: 50.0 mg/kg/injection, schedule: Q01DX009 (ip), vehicle: Klucel (hydroxypropylcellulose) (HPC)
[30] = dose: 100.0 mg/kg/injection, schedule: Q01DX001 (ip), vehicle: saline with Tween-80
[31] = dose: 200.0 mg/kg/injection, schedule: Q01DX001 (ip), vehicle: saline with Tween-80
[32] = dose: 100.0 mg/kg/injection, schedule: Q01DX001 (ip), vehicle: carboxymethylcellulose (CMC)
[33] = dose: 200.0 mg/kg/injection, schedule: Q01DX001 (ip), vehicle: carboxymethylcellulose (CMC)
[34] = dose: 400.0 mg/kg/injection, schedule: Q01DX001 (ip), vehicle: carboxymethylcellulose (CMC)
[35] = dose: 400.0 mg/kg/injection, schedule: Q01DX009 (ip), vehicle: saline with Tween-80

Measured: T/C

CCCCNC(c1ccc(C=NC(CC)(CO)CO)cc1)C(Br)(Br)Br (centres undefined)
inactive: [1] 92 % of control | [2] 88 % of control | [3] 92 % of control | [4] 90 % of control | [5] 97 % of control | [6] 91 % of control

c1ccc2c(c1)oc1ccccc12
inactive: [1] 102 % of control | [3] 102 % of control | [5] 96 % of control

CC12C=CC(C=C1)C(O)C2 (centres undefined)
inactive: [7] 101 % of control | [8] 97 % of control | [9] 114 % of control | [10] 96 % of control | [11] 90 % of control | [12] 94 % of control

Cc1ccc(S(=O)(=O)N(CCCc2c(C)nc(N)nc2N)c2ccccc2)cc1
inactive: [13] 110 % of control | [14] 104 % of control | [15] 91 % of control

CC(=O)C(=Cc1ccccc1Cl)C(C)=O
inactive: [16] 104 % of control | [8] 94 % of control | [17] 98 % of control | [10] 91 % of control | [18] 90 % of control | [12] 100 % of control

c1ccc2c(c1)Cc1c(-c3ccncc3)n[nH]c1-2
inactive: [19] 93 % of control | [20] 96 % of control | [21] 86 % of control

CC12CCC(O)CC1=CCC1C2CCC2(C)c3nc(C#N)c(=N)n(O)c3CC12 (centres undefined)
inactive: [22] 94 % of control | [23] 105 % of control

CCCCNc1nc(SC)nc2nc[nH]c12
inactive: [8] 95 % of control | [10] 96 % of control | [12] 91 % of control

Cc1c2oc3c(C)ccc(C(=O)OCCN4CCN(c5ccccc5)CC4)c3nc-2c(C(=O)OCCN2CCN(c3ccccc3)CC2)c(N)c1=O
inactive: dose: 100.0 mg/kg/injection, schedule: Q04DX002 (ip), vehicle: saline with Tween-80 92 % of control | dose: 200.0 mg/kg/injection, schedule: Q04DX002 (ip), vehicle: saline with Tween-80 103 % of control | dose: 400.0 mg/kg/injection, schedule: Q04DX002 (ip), vehicle: saline with Tween-80 103 % of control

CCOC(=O)CSc1nc2nc(Cl)c(Cl)nc2[nH]1
inactive: dose: 25.0 mg/kg/injection, schedule: Q01DX009 (ip), vehicle: saline with Tween-80 104 % of control | dose: 50.0 mg/kg/injection, schedule: Q01DX009 (ip), vehicle: saline with Tween-80 98 % of control | [24] 105 % of control | [25] 96 % of control

CC(=O)Nc1ccc(C(=O)O)c([N+](=O)[O-])c1
inactive: [2] 100 % of control | [26] 104 % of control | [4] 94 % of control | [27] 104 % of control | [6] 93 % of control | [28] 94 % of control

Clc1ccc(SCNCc2ccccc2)cc1
inactive: [1] 100 % of control | [3] 94 % of control | [5] 96 % of control

CN(C)CCCNC(=O)Nc1ccc(Cl)cc1
inactive: dose: 100.0 mg/kg/injection, schedule: Q04DX002 (ip), vehicle: other 101 % of control | dose: 200.0 mg/kg/injection, schedule: Q04DX002 (ip), vehicle: other 101 % of control | dose: 400.0 mg/kg/injection, schedule: Q04DX002 (ip), vehicle: other 97 % of control

COc1ccc(S(=O)(=O)NC(=O)NC23CC4CC(CC(C4)C2)C3)cc1
inactive: [29] 91 % of control | [7] 98 % of control | [8] 97 % of control | [10] 97 % of control | [12] 94 % of control

COc1nsc(N)n1
inactive: [30] 100 % of control | [31] 104 % of control | dose: 400.0 mg/kg/injection, schedule: Q01DX001 (ip), vehicle: saline with Tween-80 91 % of control

Clc1ccc(Cl)c(-c2csc(-c3cccnc3)n2)c1
inactive: [2] 100 % of control | [4] 100 % of control | [6] 89 % of control

O=C(NNCc1ccccc1)C(O)C(O)C(O)CO (centres undefined)
inactive: dose: 25.0 mg/kg/injection, schedule: Q01DX009 (ip), vehicle: Klucel (hydroxypropylcellulose) (HPC) 93 % of control | [29] 96 % of control | [7] 104 % of control | [9] 94 % of control | [11] 103 % of control

NC1=CC(=O)CCC1
inactive: [1] 103 % of control | [3] 100 % of control | [5] 97 % of control

CNC(=O)Nc1nc2ccccc2[nH]1
inactive: [1] 103 % of control | [19] 109 % of control | [3] 115 % of control | [20] 109 % of control | [5] 100 % of control

O=C(O)c1cccnc1Br
inactive: [19] 105 % of control | [20] 101 % of control | [21] 100 % of control

Cc1ccc(C)c(NC(=O)NC(C)(C)C)c1
inactive: [22] 105 % of control | [23] 102 % of control | dose: 400.0 mg/kg/injection, schedule: Q04DX002 (ip), vehicle: Klucel (hydroxypropylcellulose) (HPC) 117 % of control

O=C(COc1ccccc1[N+](=O)[O-])Nc1ccccc1C(=O)O
inactive: [30] 92 % of control | [31] 92 % of control

C=C(C)CNc1ccccc1
inactive: [24] 95 % of control | [19] 97 % of control | [25] 93 % of control | [20] 97 % of control | [21] 103 % of control

Cc1ccc(S(=O)(=O)N2CCc3ccccc3C=C2Br)cc1
inactive: [32] 100 % of control | [33] 102 % of control | [34] 112 % of control

Cc1cc(C(=O)O)c(C(=O)O)c(=O)[nH]1
inactive: dose: 75.0 mg/kg/injection, schedule: Q01DX001 (ip), vehicle: other 111 % of control | dose: 150.0 mg/kg/injection, schedule: Q01DX001 (ip), vehicle: other 104 % of control | dose: 300.0 mg/kg/injection, schedule: Q01DX001 (ip), vehicle: other 102 % of control

O=[N+]([O-])c1cccc(-c2nn[nH]n2)c1
inactive: [26] 94 % of control | [27] 94 % of control | [28] 96 % of control

O=C1c2cccc3cccc(c23)C1(c1ccccc1)c1ccccc1
inactive: [2] 100 % of control | [4] 100 % of control | [6] 111 % of control

O=C1C(=O)c2cccc3cccc1c23
inactive: [16] 88 % of control | [24] 90 % of control | [17] 93 % of control | [25] 89 % of control | [18] 97 % of control | [35] 89 % of control

O=C(Nc1cccc(Cl)c1)Nc1ccc(Cl)c(C(F)(F)F)c1
inactive: dose: 50.0 mg/kg/injection, schedule: Q01DX001 (ip), vehicle: carboxymethylcellulose (CMC) 94 % of control | [32] 105 % of control | [33] 100 % of control | [34] 102 % of control

OCc1ccc[n+](CCc2c[nH]c3ccccc23)c1
inactive: [19] 97 % of control | [20] 103 % of control

CNC(=O)Nc1ccc(C(=O)NCC(=O)O)cc1
inactive: [24] 100 % of control and 105 % of control | [13] 100 % of control and 92 % of control | [19] 98 % of control | [25] 93 % of control and 100 % of control | [14] 100 % of control and 91 % of control | [20] 91 % of control | [35] 105 % of control and 110 % of control | [15] 95 % of control and 96 % of control | [21] 98 % of control

NCCOB(c1ccccc1)c1ccccc1
inactive: dose: 3.8 mg/kg/injection, schedule: Q01DX009 (ip), vehicle: saline with Tween-80 94 % of control | dose: 7.5 mg/kg/injection, schedule: Q01DX009 (ip), vehicle: saline with Tween-80 105 % of control | dose: 15.0 mg/kg/injection, schedule: Q01DX009 (ip), vehicle: saline with Tween-80 91 % of control
